± gives the expanded uncertainty stated by the source.
How the values were obtained:
[1] = xn = mol fraction of the nth substance listed; conditions: 101.3 kPa, Liquid
[2] = excess molar enthalpy (molar enthalpy of mixing); xn = mol fraction of the nth substance listed; conditions: 318.15 K, 101.3 kPa, Liquid

COC(=O)OC [dimethyl carbonate] + CCCCCCCC
[1]
Conditions | mass density [kg/m3]
293.15 K, x1 = 0.0513 | 711.1 ± 0.5
293.15 K, x1 = 0.0997 | 719.8 ± 0.5
293.15 K, x1 = 0.2027 | 740.5 ± 0.5
293.15 K, x1 = 0.3063 | 764.5 ± 0.5
293.15 K, x1 = 0.3994 | 789.1 ± 0.5
293.15 K, x1 = 0.5123 | 823.6 ± 0.5
293.15 K, x1 = 0.6078 | 857.4 ± 0.5
293.15 K, x1 = 0.7137 | 901.2 ± 0.5
293.15 K, x1 = 0.8055 | 945.8 ± 0.5
293.15 K, x1 = 0.9061 | 1004 ± 0.5
293.15 K, x1 = 0.9516 | 1034.3 ± 0.5
293.15 K, x1 = 1 | 1070 ± 0.6
298.15 K, x1 = 0.0558 | 707.8 ± 0.5
298.15 K, x1 = 0.096 | 715 ± 0.5
298.15 K, x1 = 0.1488 | 725.1 ± 0.5
298.15 K, x1 = 0.2289 | 741.8 ± 0.5
298.15 K, x1 = 0.2947 | 756.9 ± 0.5
298.15 K, x1 = 0.4216 | 790.4 ± 0.5
298.15 K, x1 = 0.4883 | 810.6 ± 0.5
298.15 K, x1 = 0.4968 | 813.3 ± 0.5
298.15 K, x1 = 0.5931 | 846.6 ± 0.5
298.15 K, x1 = 0.6867 | 884.1 ± 0.5
298.15 K, x1 = 0.7879 | 931.6 ± 0.5
298.15 K, x1 = 0.8873 | 987.1 ± 0.5
298.15 K, x1 = 0.9502 | 1027.7 ± 0.5
298.15 K, x1 = 1 | 1063.5 ± 0.6
303.15 K, x1 = 0.0519 | 702.9 ± 0.5
303.15 K, x1 = 0.0827 | 708.3 ± 0.5
303.15 K, x1 = 0.1947 | 729.9 ± 0.5
303.15 K, x1 = 0.2829 | 749.4 ± 0.5
303.15 K, x1 = 0.3948 | 778.1 ± 0.5
303.15 K, x1 = 0.4942 | 807.5 ± 0.5
303.15 K, x1 = 0.5964 | 842.4 ± 0.5
303.15 K, x1 = 0.6983 | 883.1 ± 0.5
303.15 K, x1 = 0.7886 | 925.2 ± 0.5
303.15 K, x1 = 0.8946 | 984.3 ± 0.5
303.15 K, x1 = 0.9545 | 1023.4 ± 0.5
303.15 K, x1 = 1 | 1056.5 ± 0.6
313.15 K, x1 = 0.0512 | 694.5 ± 0.5
313.15 K, x1 = 0.1005 | 703 ± 0.5
313.15 K, x1 = 0.186 | 719.2 ± 0.5
313.15 K, x1 = 0.301 | 744.5 ± 0.5
313.15 K, x1 = 0.4072 | 771.6 ± 0.5
313.15 K, x1 = 0.5002 | 799.1 ± 0.5
313.15 K, x1 = 0.6042 | 834.5 ± 0.5
313.15 K, x1 = 0.709 | 876.3 ± 0.5
313.15 K, x1 = 0.7993 | 918.8 ± 0.5
313.15 K, x1 = 0.8465 | 944 ± 0.5
313.15 K, x1 = 0.9524 | 1009.1 ± 0.5
313.15 K, x1 = 1 | 1043.4 ± 0.5
318.15 K, x1 = 0.0823 | 695.4 ± 0.5
318.15 K, x1 = 0.1827 | 714.2 ± 0.5
318.15 K, x1 = 0.2965 | 738.7 ± 0.5
318.15 K, x1 = 0.3626 | 754.9 ± 0.5
318.15 K, x1 = 0.436 | 774.6 ± 0.5
318.15 K, x1 = 0.5156 | 798.6 ± 0.5
318.15 K, x1 = 0.5606 | 813.4 ± 0.5
318.15 K, x1 = 0.6305 | 838.7 ± 0.5
318.15 K, x1 = 0.6756 | 856.4 ± 0.5
318.15 K, x1 = 0.7428 | 885.6 ± 0.5
318.15 K, x1 = 0.7845 | 905.6 ± 0.5
318.15 K, x1 = 0.8233 | 925.5 ± 0.5
318.15 K, x1 = 0.8711 | 951.7 ± 0.5
318.15 K, x1 = 0.9071 | 973.5 ± 0.5
318.15 K, x1 = 0.964 | 1010.8 ± 0.5
318.15 K, x1 = 0.9761 | 1019.5 ± 0.5
318.15 K, x1 = 1 | 1036.9 ± 0.5

[2]
Conditions | excess molar enthalpy [kcal/mol]
x1 = 0.0844 | 0.164 ± 0.00382
x1 = 0.1746 | 0.299 ± 0.00645
x1 = 0.2622 | 0.403 ± 0.0086
x1 = 0.3463 | 0.475 ± 0.01
x1 = 0.4232 | 0.514 ± 0.0108
x1 = 0.4922 | 0.528 ± 0.011
x1 = 0.5544 | 0.528 ± 0.011
x1 = 0.6104 | 0.516 ± 0.0108
x1 = 0.6455 | 0.504 ± 0.0105
x1 = 0.683 | 0.488 ± 0.0103
x1 = 0.7224 | 0.461 ± 0.0098
x1 = 0.7671 | 0.419 ± 0.00884
x1 = 0.8115 | 0.368 ± 0.00789
x1 = 0.8562 | 0.307 ± 0.00669
x1 = 0.8987 | 0.238 ± 0.00526
x1 = 0.9358 | 0.167 ± 0.00382
x1 = 0.9713 | 0.0834 ± 0.00215
x1 = 1 | 0 ± 0.000478
